Experiment [1] concerns the target T1, glutathione-S-transferase (GST) tagged LXRbeta LBD (ligand binding domain) (Homo sapiens, UniProt P55055).
T1 construct: purchased Invitrogen pv4658.pps
T1 sequence (P55055 222-460 limits assumed): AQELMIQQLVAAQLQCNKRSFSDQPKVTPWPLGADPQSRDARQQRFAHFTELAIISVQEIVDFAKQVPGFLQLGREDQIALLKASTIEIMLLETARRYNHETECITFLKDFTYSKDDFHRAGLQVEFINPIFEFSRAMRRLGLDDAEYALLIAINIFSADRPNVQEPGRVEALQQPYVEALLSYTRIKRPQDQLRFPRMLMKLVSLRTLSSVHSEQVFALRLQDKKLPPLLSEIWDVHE
As to the kind of experiment: LanthaScreen TR-FRET Liver X Receptor Coactivator Assay, co-activator recruitment to LXRbeta LBD. The class given is biochemical. Particulars: for pEC50: potency (Inflection Point, IP), co-activator recruitment to LXRbeta LBD, in relation to T0901317, read-out: LXR beta IP; for Emax: read-out: LXR beta Activity @ max dose (%). An outline of the steps: (§1)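 TR-FRET coactivator recruitment; compound + LBD, then fluorescein-coactivator peptide/Tb-anti-GST Ab mix; RT incubation; IP and Emax vs T0901317.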
Background: In TR-FRET formats the signal depends on donor and acceptor labels being close together.

Experiment [2] deals with T2, glutathione-S-transferase (GST) tagged LXRalpha LBD (ligand binding domain) (Homo sapiens, UniProt Q13133).
T2 construct: purchased Invitrogen pv4655
T2 sequence (Q13133 209-447 limits assumed): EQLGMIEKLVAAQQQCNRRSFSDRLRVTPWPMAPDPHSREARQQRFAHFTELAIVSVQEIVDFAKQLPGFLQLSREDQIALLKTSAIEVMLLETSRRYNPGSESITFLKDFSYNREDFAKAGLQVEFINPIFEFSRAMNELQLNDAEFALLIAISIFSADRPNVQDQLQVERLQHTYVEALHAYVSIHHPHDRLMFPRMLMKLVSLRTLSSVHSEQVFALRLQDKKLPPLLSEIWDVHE
As to the kind of experiment: LanthaScreen TR-FRET Liver X Receptor Coactivator Assay, co-activator recruitment to LXRalpha LBD. Particulars: for Emax: read-out: LXR alpha Activity @ max dose (%); for LXR alpha IP (nM) / pEC50: potency (Inflection Point, IP), co-activator recruitment to LXRalpha LBD, in relation to T0901317; for pEC50: read-out: LXR alpha IP. In kind it is biochemical. An outline of the steps: as §1

Setting [3] is: efficacy at max dose, in relation to reference dual agonist T0901317.

Consider 16 compounds from patent publication US10752587B2, “Homobispiperidinyl derivatives as liver X receptor beta agonists, compositions and their use” (Merck Sharp & Dohme Corp., priority 2015, dated 2020).

Each structure is given as a SMILES string. pEC50: −log10 of the molar value.

As for `COc1cccc([C@@](O)(C(=O)N2CCC(CC3CCN(c4ccc(C(=O)N(C)C)c(C)n4)CC3)CC2)C(F)(F)F)c1` [Example 7-8, N,N,2-trimethhyl-6-[4-({1-[(2R)-3,3,3-trifluoro-2-hydroxy-2-(3-methoxyphenyl)propanoyl]piperidin-4-yl}methyl)piperidin-1-yl]pyridine-3-carboxamide], the “LXR beta Activity @ max dose (%)” value in experiment [1] (setting [3]) is 53%. Also, the pEC50 in experiment [1] is 7.92. Moreover, the “LXR alpha Activity @ max dose (%)” value in experiment [2] (setting [3]) is listed as 6%.
Consider `Cc1nc(N2CCC(CC3CCN(C(=O)[C@](O)(c4cc(Cl)cc(Cl)c4)C(F)(F)F)CC3)CC2)ccc1C(=O)N(C)C` [Example 7-9, 6-[4-({1-[(2R)-2-(3,5-dichlorophenyl)-3,3,3-trifluoro-2-hydroxypropanoyl]piperidin-4-yl}methyl)piperidin-1-yl]-N,N,2-trimethylpyridine-3-carboxamide], for which the Emax in experiment [1] (setting [3]) stood at 70%; in experiment [2] (setting [3]), 3%. For the same compound, the pEC50 in experiment [1] was 7.92. Also, in experiment [2], the “LXR alpha IP (nM)” value was “NO IP”.
For `COc1cccc([C@@](O)(C(=O)N2CC(CC3CCN(c4ccc(C(=O)N(C)C)c(C)n4)CC3)C2)C(F)(F)F)c1` [Example 7-10, N,N,2-trimethyl-6-[4-({1-[(2R)-3,3,3-trifluoro-2-hydroxy-2-(3-methoxyphenyl)propanoyl]azetidin-3-yl}methyl)piperidin-1-yl]pyridine-3-carboxamide], the Emax in experiment [1] (setting [3]) turned out to be 77%; in experiment [2] (setting [3]), 28%. Further, the pEC50 in experiment [1] is 6.87; in experiment [2] it was 7.70.
Regarding `COc1cccc([C@@](O)(C(=O)N2CCC(CC3CCN(c4ccc(C(=O)N(C)C)c(C5CC5)n4)CC3)CC2)C(F)(F)F)c1` [Example 7-11, 2-cyclopropyl-N,N-dimethyl-6-[4-({1-[(2R)-3,3,3-trifluoro-2-hydroxy-2-(3-methoxyphenyl)propanoyl]piperidin-4-yl}methyl)piperidin-1-yl]pyridine-3-carboxamide], the figures for the Emax in experiment [1] (setting [3]) and in experiment [2] (setting [3]) were 73% and 8%, respectively. Besides, the pEC50 in experiment [1] is 7.72. Further, the “LXR alpha IP (nM)” value in experiment [2] is recorded as “NO IP”.
The corresponding values for `CCOc1cccc([C@@](O)(C(=O)N2CCC(CC3CCN(c4ccc(C(=O)N(C)C)c(C5CC5)n4)CC3)CC2)C(F)(F)F)c1` [Example 7-12, 2-cyclopropyl-6-[4-({1-[(2R)-2-(3-ethoxyphenyl)-3,3,3-trifluoro-2-hydroxypropanoyl]piperidin-4-yl}methyl)piperidin-1-yl]-N,N-dimethylpyridine-3-carboxamide] are 71%, 6%, 7.62 and “NO IP”.
The corresponding values for `COc1cccc([C@@](O)(C(=O)N2CCC(CC3CN(c4ccc(C(=O)N(C)C)c(C)n4)C3)CC2)C(F)(F)F)c1` [Example 7-13, N,N,2-trimethyl-6-[3-({1-[(2R)-3,3,3-trifluoro-2-hydroxy-2-(3-methoxyphenyl)propanoyl]piperidin-4-yl}methyl)azetidin-1-yl]pyridine-3-carboxamide] are 72%, 4%, 5.94 and “NO IP”.
The corresponding values for `CCOc1cccc([C@@](O)(C(=O)N2CCC(CC3(C)CCN(c4ccc(C(=O)N(C)C)c(C)n4)CC3)CC2)C(F)(F)F)c1` [Example 7-14, 6-[4-({1-[(2R)-2-(3-ethoxyphenyl)-3,3,3-trifluoro-2-hydroxypropanoyl]piperidin-4-yl}methyl)-4-methyl-piperidin-1-yl]-N,N,2-trimethylpyridine-3-carboxamide] are 100%, 0%, 6.98 and “NO IP”.
With `COc1cccc([C@@](O)(C(=O)N2CCC(CC3CN(c4ccc(C(=O)N(C)C)c(C5CC5)n4)C3)CC2)C(F)(F)F)c1` [Example 7-15, 2-cyclopropyl-N,N-dimethyl-6-[3-({1-[(2R)-3,3,3-trifluoro-2-hydroxy-2-(3-methoxyphenyl)propanoyl]piperidin-4-yl}methyl)azetidin-1-yl]pyridine-3-carboxamide], the Emax was 91% in experiment [1] (setting [3]) and 0% in experiment [2] (setting [3]). In experiment [1], the pEC50 is 5.85. For the same compound, in experiment [2], the “LXR alpha IP (nM)” value is “NO IP”.
The matching figures for `COc1cccc([C@@](O)(C(=O)N2CCC(CC3(C)CCN(c4ccc(C(=O)N(C)C)c(C)n4)CC3)CC2)C(F)(F)F)c1` [Example 7-16, N,N,2-trimethyl-6-[4-methyl-4-({1-[(2R)-3,3,3-trifluoro-2-hydroxy-2-(3-methoxyphenyl)propanoyl]piperidin-4-yl}methyl)piperidin-1-yl]pyridine-3-carboxamide]: 65%, 8%, 7.18 and “NO IP”.
The corresponding values for `CCOc1cccc([C@@](O)(C(=O)N2CCC(CC3CN(c4ccc(C(=O)N(C)C)c(C5CC5)n4)C3)CC2)C(F)(F)F)c1` [Example 7-17, 2-cyclopropyl-6-[3-({1-[(2R)-2-(3-ethoxyphenyl)-3,3,3-trifluoro-2-hydroxypropanoyl]piperidin-4-yl}methyl)azetidin-1-yl]-N,N-dimethylpyridine-3-carboxamide] are 36%, 0%, 5.89 and “NO IP”.
`COc1nc(N2CCC(CC3CCN(C(=O)[C@](O)(c4ccccc4)C(F)(F)F)CC3)CC2)ccc1C(=O)N(C)C` [Example 7-18, 2-methoxy-N,N-dimethyl-6-[4-({1-[(2R)-3,3,3-trifluoro-2-hydroxy-2-phenylpropanoyl]piperidin-4-yl}methyl)piperidin-1-yl] pyridine-3-carboxamide]: the Emax in experiment [1] (setting [3]) came to 80%; in experiment [2] (setting [3]), 34%. The pEC50 in experiment [1] was 8.22; in experiment [2], 6.35.
With `COc1cccc([C@@](O)(C(=O)N2CCC(CC3CCN(c4ccc(C(=O)N(C)C)c(OC)n4)CC3)CC2)C(F)(F)F)c1` [Example 7-19, 2-methoxy-N,N-dimethyl-6-[4-({1-[(2R)-3,3,3-trifluoro-2-hydroxy-2-(3-methoxyphenyl)propanoyl]piperidin-4-yl}methyl)piperidin-1-yl]pyridine-3-carboxamide], the Emax in experiment [1] (setting [3]) turned out to be 61%; in experiment [2] (setting [3]), 3%. Further, the pEC50 in experiment [1] was 8.15. Also, in experiment [2], the “LXR alpha IP (nM)” value is on record as “NO IP”.
The matching figures for `COc1nc(N2CCC(CC3CCN(C(=O)[C@](O)(c4cc(Cl)cc(Cl)c4)C(F)(F)F)CC3)CC2)ccc1C(=O)N(C)C` [Example 7-20, 6-[4-({1-[(2R)-2-(3,5-dichlorophenyl)-3,3,3-trifluoro-2-hydroxypropanoyl]piperidin-4-yl}methyl)piperidin-1-yl]-2-methoxy-N,N-dimethylpyridine-3-carboxamide]: 79%, 29%, 8.22 and “NO IP”.
The corresponding values for `COc1cccc([C@@](O)(C(=O)N2CC(CC3CCN(c4ccc(C(=O)N(C)C)c(OC)n4)CC3)C2)C(F)(F)F)c1` [Example 7-21, 2-methoxy-N,N-dimethyl-6-[4-[{1-[(2R)-3,3,3-trifluoro-2-hydroxy-2-(3-methoxyphenyl)propanoyl]azetidin-3-yl}methyl)piperidin-1-yl]pyridine-3-carboxamide] are 70%, 2%, 6.77 and “NO IP”.
The corresponding values for `CCOc1cccc([C@@](O)(C(=O)N2CCC(CC3CN(c4ccc(C(=O)N(C)C)c(OC)n4)C3)CC2)C(F)(F)F)c1` [Example 7-22, 6-[3-({1-[(2R)-2-(3-ethoxyphenyl)-3,3,3-trifluoro-2-hydroxypropanoyl]piperidin-4-yl}methyl)azetidin-1-yl]-2-methoxy-N,N-dimethylpyridine-3-carboxamide] are 45%, 0%, 5.90 and “NO IP”.
Consider `COc1cccc([C@@](O)(C(=O)N2CCC(CC3CN(c4ccc(C(=O)N(C)C)c(OC)n4)C3)CC2)C(F)(F)F)c1` [Example 7-23, 2-methoxy-N,N-dimethyl-6-[3-({1-[(2R)-3,3,3-trifluoro-2-hydroxy-2-(3-methoxyphenyl)propanoyl]piperidin-4-yl}methyl)azetidin-1-yl]pyridine-3-carboxamide], for which the Emax in experiment [1] (setting [3]) was 54%; in experiment [2] (setting [3]), 0%. Also, the pEC50 in experiment [1] was 5.91. Besides, the “LXR alpha IP (nM)” value in experiment [2] is reported as “NO IP”.
